According to US10195156B2, “Compounds and compositions for intracellular delivery of agents” (ModernaTX, Inc., priority 2015, dated 2019):
Where two headings read alike, the source gives them in different places.

How the values were obtained:
[1] = test system: hEPO mRNA expression; experiment: Expression of hEPO in rats after intravenous administration; format: in vivo
Description: PBS (phosphate buffered saline) is used as control.
Formulations were prepared according to Table 5 and included mRNA encoding hEPO.
[…] After the 48 hour time point, livers and spleens were harvested and frozen.

[2] = Particle size and polydispersity index of nanoparticle compositions (Zetasizer Nano ZS); format: physicochemical
Method in brief: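 In 1×PBS, the compositions were sized on a Zetasizer Nano ZS, which also reported their polydispersity index.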

[3] = test system: modified luciferase expression; experiment: Expression of Luc in different organs (liver, lung, spleen, femur) 6 hours after intravenous administration; format: in vivo; conditions: Table 3, mice, i.v., 0.5 mpk
Description: The efficacy of the nanoparticle compositions presented in Tables 1, 1a, 17-1, 19-1, 20-1 and 21-1 was further evaluated by measuring the expression of modified luciferase in the liver, lung, spleen, and femur upon administration of a given composition. Formulations were administered intravenously to mice (n=3) at a dosage of 0.5 mpk and bioluminescence measured after 6 hours. The standard MC3 formulation and a PBS control were also tested.

[4] = pKa of nanoparticle compositions; format: physicochemical
[5] = Encapsulation efficiency of RNA (QUANT-IT RIBOGREEN RNA assay); format: physicochemical
Method in brief: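 Nanoparticle samples diluted to ~5 μg/mL RNA in TE buffer (pH 7.5), incubated with or without 2% Triton X-100 solution at 37 °C for 15 min, then RiboGreen added. Fluorescence read at ~480/520 nm, blank-subtracted; free RNA % = intact over Triton-disrupted signal.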

[6] = test system: luciferase (Luc) mRNA expression; experiment: Expression of Luc induced by sample formulations, whole-body bioluminescence after intravenous administration; format: in vivo; conditions: for Total Flux 3 hours / Total Flux 6 hours / Total Flux 24 hours: Table 2
Method in brief: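 Mice (n=6) dosed intravenously with Luc mRNA nanoparticle formulations at 0.5 mg/kg. Whole-body bioluminescence measured at 3, 6 and 24 h. Standard MC3 formulation and PBS control run alongside.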

[7] = test system: LDLr−/− mice; experiment: Expression in LDLr−/− mice (LDLr dependence); format: in vivo; conditions: FIG. 9, FIG. 10
[8] = test system: IL-6; experiment: Cytokine production induced by sample formulations: IL-6; format: in vivo; conditions: Table 4; mice, i.v., 0.5 mpk, 6 hours; in pg/mL (unit assumed)
Method in brief: (§1)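 Mice received nanoparticle formulations intravenously at 0.5 mpk, with standard MC3 formulation and PBS as controls. Cytokine concentrations were measured 6 hours after dosing.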

[9] = test system: IP-10; experiment: Cytokine production induced by sample formulations: IP-10; format: in vivo; conditions: Table 4; mice, i.v., 0.5 mpk, 6 hours; in pg/mL (unit assumed)
Method in brief: as §1

[10] = Tolerability / toxicity in rats (hEPO study); format: in vivo; conditions: FIG. 8, i.v., 2 mg/kg dose
[11] = test system: LDL-c; experiment: LDL levels in LDLr−/− mice after mRNA encoding the LDL receptor; format: in vivo, LDLR knockout mice
[12] = Concentration of RNA in nanoparticle composition (ultraviolet-visible spectroscopy); format: physicochemical; conditions: Table 5, hEPO mRNA
Description: Ultraviolet-visible spectroscopy can be used to determine the concentration of a therapeutic and/or prophylactic agent (e.g., RNA) in nanoparticle compositions. 100 μL of the diluted formulation in 1×PBS is added to 900 μL of a 4:1 (v/v) mixture of methanol and chloroform. After mixing, the absorbance spectrum of the solution is recorded, for example, between 230 nm and 330 nm on a DU 800 spectrophotometer (Beckman Coulter, Beckman Coulter, Inc., Brea, Calif.). The concentration of therapeutic and/or prophylactic agent in the nanoparticle composition can be calculated based on the extinction coefficient of the therapeutic and/or prophylactic agent used in the composition and on the difference between the absorbance at a wavelength of, for example, 260 nm and the baseline value at a wavelength of, for example, 330 nm.

[13] = test system: hEPO mRNA expression; experiment: hEPO levels in non-human primates; format: in vivo; conditions: FIG. 10, up to ~50 h
Description: FIG. 10 is a graph showing hEPO levels in non-human primates up to ˜50 h after administration of a nanoparticle composition containing Compound 4, compared to a composition containing MC3.
The tolerability and efficacy of nanoparticle compositions to non-human primates is evaluated in Cynomolgus monkeys. Monkeys are administered an optimized nanoparticle composition including an mRNA encoding hEPO once weekly for four weeks. The levels of hEPO protein, mRNA, and cytokine profiles are measured using ELISA-based techniques before and 2, 6, 12, 24, 48, 72, and 120 hours after each administration.

[14] = test system: Luc expression; experiment: ApoE dependence of luciferase expression (ApoE knockout vs. wild-type mice); format: in vivo; conditions: 0.5 mpk, 6 h
Source text: FIG. 17 is a pair of graphs showing the ApoE dependence of luciferase (“Luc”) expression following administration of a composition containing Luc mRNA and Compound 4 to mice at a dose 0.5 mpk. The expression following administration of a composition containing Luc mRNA and MC3 is presented for comparison. […] The % change in Luc expression in livers of ApoE knockout vs. wild-type mice (i.e., (WT mean expression-KO mean expression)/WT mean expression]*100%) was 91.9% for Compound 4 and 97.5% for MC3. […] The % change in expression in spleens of ApoE knockout vs. wild-type mice was 4.34% for Compound 4 and 72.2% for MC3. Numbers 1-4 refer to the following: 1: Composition containing Compound 4, administered to ApoE knockout mice; 2: Composition containing Compound 4, administered to wild-type mice; 3: Composition containing MC3, administered to ApoE knockout mice; 4: Composition containing MC3, administered to wild-type mice.

[15] = Lipid levels in liver and spleen 48 hours after administration; format: in vivo, rats; conditions: for concentration at 48 h: Sprague-Dawley, rat, intravenous
Description: Formulations were administered intravenously to rats (n=3 or 6) at a dosage of 0.2 mg/kg or 0.5 mg/kg (mpk) and hEPO levels measured at 3, 6, and 24 hour time points. After the 48 hour time point, livers and spleens were harvested and frozen.
The amount of lipid in the liver and spleen 48 hours after administration of a nanoparticle composition was also measured. […] In contrast, approximately 60% of doses including MC3 or Compound 22 remained in the liver after 48 hours. Less than 3% of the dose remained in the spleen for each composition tested.

[16] = test system: GFP expression in liver cells; experiment: Mouse liver immunohistochemistry (IHC) with GFP mRNA; format: in vivo; conditions: FIG. 11, i.v., 0.5 mpk, 6 h (MC3, CD-1) or 8 h (Compound 4, LDLR knockout)
Description: FIG. 11 is a pair of images comparing the results of a mouse liver immunohistochemistry (IHC) using mRNA expressing green fluorescent protein (GFP) after administration of nanoparticle compositions containing Compound 4 and MC3.
FIG. 16 is a graph showing GFP levels in the livers of LDLR knockout mice at 30 min to 24 h after intravenous administration of an eGFP RNA in a lipid composition containing Compound 4. The liver GFP levels were determined via IHC. The square markers represent the number of GFP positive cells following administration of a dose of 0.1 mpk of the composition. The circular markers represent the number of GFP positive cells following administration of a dose of 0.5 mpk of the composition.

[17] = Table 1, rows without footnote mark
[18] = Table 1, rows without footnote mark (lipid:DOPE:cholesterol:PEG-DMG 40:20:38.5:1.5, Luc mRNA; MC3 standard formulation)
[19] = Table 5, hEPO mRNA, 40:20:38.5:1.5 Lipid:DOPE:Chol:PEG-DMG
[20] = Table 5, hEPO mRNA, 50:10:38.5:1.5 Lipid:DSPC:Chol:PEG-DMG

| SMILES | PDI [2, 17] | Size (nm) [2, 18] [nm] | Total Flux Femur [3] | Total Flux Liver [3] | Total Flux Lung [3] | Total Flux Spleen [3] | pKa [4, 17] | EE (%) [5, 17] [%] | Total Flux 3 hours ([6]; mice, i.v., 0.5 mg/kg, 3 hours) | Total Flux 6 hours ([6]; mice, i.v., 0.5 mg/kg) | Total Flux 24 hours ([6]; mice, i.v., 0.5 mg/kg) | LDLr dependence of the lipid (in words) [7] | IL-6 [8] | IP-10 [9] | tolerability / toxicity in rats (in words) [10] | also measured |
| --- | --- | --- | --- | --- | --- | --- | --- | --- | --- | --- | --- | --- | --- | --- | --- | --- |
| CCCCCCCCCCCCN(CCCCCCCCCCCC)CCN(CCCCCCCCCCCC)CC(=O)N1CCN(C(=O)CN(CCCCCCCCCCCC)CCCCCCCCCCCC)CC1 [Compound 11, 2-(Didodecylamino)-1-(4-(N-(2-(didodecylamino)ethyl)-N-dodecylglycyl)piperazin-1-yl)ethan-1-one] | 0.099 | 87.4 | 1.47E+06 | 1.67E+09 | 2.21E+06 | 7.21E+06 | 6.54 | 99.5 | 1.23E+10 | 3.81E+09 | 8.20E+08 | LDLr independent lipid | 250 | 3305 | improved tolerability as compared to KL22 | hEPO expression in rats (in words) ([1]; FIG. 8, rats, i.v., 2 mpk (Graph A)): comparable to MC3; LDL-c levels in LDLR knockout mice (in words) ([11]; FIG. 9 Graph B, mRNA encoding the LDL receptor, 0.5 and 1 mpk): found to drop |
| CCCCCCCCCCCCN(CCCCCCCCCCCC)CCN(CCCCCCCCCCCC)CCN1CCN(CCN(CCCCCCCCC)CCCCCCCCC)CC1 [Compound 23, N^1-(2-(4-(2-(Dinonylamino)ethyl)piperazin-1-yl)ethyl)-N^1,N^2,N^2-tridodecylethane-1,2-diamine] | 0.058 | 85.4 | 3.17E+06 | 4.94E+09 | 1.51E+07 | 2.95E+07 | 6.07 | 82.9 | 2.33E+10 | 3.40E+10 | 1.06E+09 | – | 259 | 3702 | toxic | Conc. ([12]; 40:20:38.5:1.5 Lipid:DOPE:Chol:PEG-DMG): 438.20 µg/mL; Conc. ([12]; 50:10:38.5:1.5 Lipid:DSPC:Chol:PEG-DMG): 454.58 µg/mL; PDI [2, 19]: 0.16; Size (nm) [2, 19]: 98.5 nm; PDI [2, 20]: 0.11; Size (nm) [2, 20]: 95.2 nm; pKa [4, 19]: 6.070; pKa [4, 20]: 6.164; EE (%) [5, 19]: 77.19%; EE (%) [5, 20]: 51.46%; Luc expression in mice compared with MC3 (in words) ([6]; Table 7a): several fold higher; total flux after 3 hours, rank within the named table (in words) ([6]; mice, i.v., 0.5 mg/kg, 3 hours): highest flux after 3 hours |
| CCCCCCCCCN(CCCCCCCCC)CCN(CCCCCCCCC)CC(=O)N1CCN(C(=O)CN(CCCCCCCCC)CCCCCCCCC)CC1 [Compound 4, 2-(Dinonylamino)-1-(4-(N-(2-(dinonylamino)ethyl)-N-nonylglycyl)piperazin-1-yl)ethan-1-one] | 0.120 | 89.7 | – | – | – | – | 7.12 | 96.78 | – | – | – | LDLr independent lipid | – | – | – | AUC (0.1 mpk) ([1]; hEPO expression in S.D. rats, 0.1 mpk): 2.12E+06; AUC/MC3 0.1 mpk ([1]; hEPO expression in S.D. rats, 0.1 mpk, relative to MC3): 1.3; AUC (1 mpk) ([1]; hEPO expression in S.D. rats, 1 mpk): 6.79E+07; AUC/MC3 1 mpk ([1]; hEPO expression in S.D. rats, 1 mpk, relative to MC3): 0.58; expression of hEPO compared to MC3 [13]: 3 fold; % change in Luc expression in livers of ApoE knockout vs. wild-type mice ([14]; FIG. 17 Graph A, liver): 91.9%; % change in expression in spleens of ApoE knockout vs. wild-type mice ([14]; FIG. 17 Graph B, spleen): 4.34%; concentration at 48 h ([15]; liver, 48 hours after administration, read-out: Lipid in liver): 22000 ng/g; concentration at 48 h ([15]; spleen, 48 hours after administration, read-out: Lipid in spleen): 5340 ng/g; % remaining dose in liver ([15]; liver, 48 hours after administration): 38%; % dose remainng Rat liver (48 h) ([15]; rat liver, 48 h): 37.82%; % remaining dose in spleen ([15]; spleen, 48 hours after administration): 0.61%; GFP protein expression in liver cell types (in words) [16]: less protein expression in Kupffer cells; response vs control in vivo at 0.5 mg/kg ([11]; Mus musculus, Table 7b, LDLr−/− mice, 0.5 mpk, LDLr, read-out: LDL levels lipid/untreated LDLr−/− mice 0.5 mpk, LDLr): 54% |
